Assay results as given in ChEMBL document CHEMBL1201862, “PubChem BioAssay data set” (2004).
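Test compounds were applied to cells in 96-well plates for 48 hours at 5 doses. GI50 is the concentration that inhibits growth by half.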 Activity calls are given as the source filed them. Rule as the data show it: active = GI50 up to about 1.1 µM and inactive = higher.

Key:
Test in all cases: NCI anticancer screen, dose series, 48 h
UO-31 = system: UO-31
UACC-62 = system: UACC-62
KM12 = system: KM12
RXF 393 = system: RXF 393
RPMI-8226 = system: RPMI-8226
SN12C = system: SN12C
OVCAR-5 = system: OVCAR-5
COLO 205 = system: COLO 205
HCC 2998 = system: HCC 2998
A549 = system: A549
SF-295 = system: SF-295
UACC-257 = system: UACC-257
A498 = system: A498
OVCAR-8 = system: OVCAR-8
CAKI-1 = system: CAKI-1
NCI-H522 = system: NCI-H522
Malme-3M = system: Malme-3M
NCI/ADR-RES = system: NCI/ADR-RES
MCF7 = system: MCF7
DU-145 = system: DU-145

Measured: GI50

Cc1ccc(N(C(=O)CC(=O)N2N=C(c3ccccc3)C(/N=N/c3ccc([N+](=O)[O-])cc3)C2=O)C(=O)c2ccc(Cl)cc2)cc1 (centres undefined)
inactive: UO-31 16.3 µM | UACC-62 30.3 µM | KM12 20.4 µM | RXF 393 5.16 µM | RPMI-8226 21.1 µM | SN12C 18.5 µM | OVCAR-5 20.5 µM | COLO 205 5.31 µM | HCC 2998 51.2 µM | A549 22.7 µM | SF-295 9.2 µM | UACC-257 30.9 µM | A498 6.14 µM | OVCAR-8 18.1 µM | CAKI-1 28.4 µM | NCI-H522 3.65 µM | Malme-3M > 100 µM

CCOc1cc[n+]([C-](C#N)C#N)cc1
inactive: UO-31 > 100 µM | UACC-62 > 100 µM | KM12 > 100 µM | RXF 393 > 100 µM | RPMI-8226 > 100 µM | SN12C > 100 µM | OVCAR-5 > 100 µM | COLO 205 > 100 µM | HCC 2998 > 100 µM | A549 > 100 µM | SF-295 > 100 µM | UACC-257 > 100 µM | A498 > 100 µM | OVCAR-8 > 100 µM | CAKI-1 > 100 µM | NCI-H522 > 100 µM | Malme-3M > 100 µM

CC(C)CC(=O)NS(=O)(=O)c1ccccc1
inactive: UO-31 > 100 µM | UACC-62 > 100 µM | KM12 > 100 µM | RXF 393 > 100 µM | RPMI-8226 > 100 µM | SN12C > 100 µM | OVCAR-5 > 100 µM | COLO 205 > 100 µM | HCC 2998 > 100 µM | A549 > 100 µM | SF-295 > 100 µM | UACC-257 > 100 µM | A498 > 100 µM | OVCAR-8 > 100 µM | CAKI-1 > 100 µM | NCI-H522 > 100 µM | Malme-3M > 100 µM

CCN(CC)CCN1C(=O)c2c(c(-c3ccccc3)c3ccccc3c2-c2ccccc2)C1=O
inactive: UACC-62 > 100 µM | KM12 > 100 µM | RXF 393 25.8 µM | RPMI-8226 > 100 µM | SN12C > 100 µM | OVCAR-5 > 100 µM | COLO 205 > 100 µM | HCC 2998 > 100 µM | NCI/ADR-RES > 100 µM | A549 > 100 µM | SF-295 71.6 µM | UACC-257 > 100 µM | A498 > 100 µM | OVCAR-8 > 100 µM | MCF7 > 100 µM | CAKI-1 > 100 µM | NCI-H522 > 100 µM | Malme-3M > 100 µM

Cc1ccc(NC(=O)C2C(=O)N(c3ccc(C)c(C)c3)C(=O)/C2=N/O)cc1C (centres undefined)
inactive: UO-31 > 100 µM | UACC-62 > 100 µM | KM12 > 100 µM | RXF 393 > 100 µM | RPMI-8226 > 100 µM | SN12C > 100 µM | OVCAR-5 > 100 µM | COLO 205 > 100 µM | HCC 2998 > 100 µM | A549 > 100 µM | SF-295 > 100 µM | UACC-257 > 100 µM | A498 > 100 µM | OVCAR-8 > 100 µM | CAKI-1 > 100 µM | NCI-H522 > 100 µM | Malme-3M > 100 µM

O=C(O)c1ccc(-c2nc3cc(Cl)ccc3[nH]2)cc1
inactive: UO-31 > 100 µM | KM12 > 100 µM | RXF 393 > 100 µM | RPMI-8226 > 100 µM | SN12C > 100 µM | COLO 205 > 100 µM | HCC 2998 > 100 µM | NCI/ADR-RES > 100 µM | A549 > 100 µM | SF-295 > 100 µM | OVCAR-8 > 100 µM | MCF7 > 100 µM | CAKI-1 > 100 µM | NCI-H522 > 100 µM

CC(C)(C)C1=CC(=N/N=c2\scc(-c3ccccc3)n2-c2ccccc2)C=C(C(C)(C)C)C1=O
inactive: UO-31 > 100 µM | UACC-62 > 100 µM | KM12 > 100 µM | RXF 393 > 100 µM | RPMI-8226 > 100 µM | SN12C > 100 µM | OVCAR-5 > 100 µM | COLO 205 > 100 µM | HCC 2998 > 100 µM | A549 > 100 µM | SF-295 > 100 µM | UACC-257 > 100 µM | A498 > 100 µM | OVCAR-8 > 100 µM | CAKI-1 > 100 µM | NCI-H522 > 100 µM | Malme-3M > 100 µM

[N-]=[N+]=NC1=C(N=[N+]=[N-])c2cccc3cccc(c23)C1=O
inactive: UO-31 > 100 µM | UACC-62 > 100 µM | KM12 76.2 µM | RXF 393 65.6 µM | RPMI-8226 > 100 µM | SN12C > 100 µM | OVCAR-5 > 100 µM | COLO 205 > 100 µM | HCC 2998 > 100 µM | NCI/ADR-RES > 100 µM | A549 > 100 µM | SF-295 > 100 µM | UACC-257 > 100 µM | A498 > 100 µM | OVCAR-8 > 100 µM | MCF7 > 100 µM | CAKI-1 > 100 µM | NCI-H522 > 100 µM | Malme-3M > 100 µM

O=c1c2ccc(Cl)cc2oc2c(CNc3ccc(S(=O)(=O)Nc4ncccn4)cc3)cccc12
inactive: UO-31 > 100 µM | UACC-62 > 100 µM | KM12 > 100 µM | RPMI-8226 > 100 µM | SN12C > 100 µM | OVCAR-5 > 100 µM | COLO 205 > 100 µM | HCC 2998 > 100 µM | NCI/ADR-RES > 100 µM | A549 > 100 µM | SF-295 > 100 µM | UACC-257 > 100 µM | A498 > 100 µM | OVCAR-8 > 100 µM | MCF7 > 100 µM | CAKI-1 > 100 µM | NCI-H522 > 100 µM | Malme-3M > 100 µM

O=C(NNc1ccccc1)/C(=C/c1ccc2c(c1)OCO2)NC(=O)c1ccccc1
inactive: UO-31 > 100 µM | UACC-62 > 100 µM | KM12 > 100 µM | RXF 393 > 100 µM | RPMI-8226 52.2 µM | SN12C > 100 µM | OVCAR-5 > 100 µM | COLO 205 40.1 µM | HCC 2998 > 100 µM | A549 > 100 µM | SF-295 > 100 µM | UACC-257 > 100 µM | A498 > 100 µM | OVCAR-8 > 100 µM | CAKI-1 > 100 µM | NCI-H522 33.3 µM | Malme-3M > 100 µM

O=C(c1ccccc1)C1C(C(=O)c2ccccc2)N1Cc1ccccc1 (centres undefined)
inactive: DU-145 24.4 µM | UO-31 36.8 µM | UACC-62 15.7 µM | KM12 27.8 µM | RPMI-8226 48.9 µM | SN12C 21.4 µM | OVCAR-5 > 100 µM | COLO 205 24.3 µM | HCC 2998 48.3 µM | NCI/ADR-RES 33.5 µM | A549 24.2 µM | SF-295 39.7 µM | UACC-257 38.6 µM | A498 33 µM | OVCAR-8 32.4 µM | CAKI-1 75.3 µM | NCI-H522 24.5 µM | Malme-3M 34.4 µM
